Data set [1] is described as follows: Pharmacokinetics of decursin in plasma after oral administration of RAGE. Type of data set: in vivo, SD rats. The procedure:
Quantification of decursin was performed using an Accela LC system (Thermo Fisher Scientific; MA, USA) equipped with an autosampler, degasser, and quaternary solvent pump. Decursin and IS were separated on a Hypersil GOLD C18 column (2.1 mm × 100 mm, 1.9 μm; Thermo Fisher Scientific, MA, USA) at 35℃. The flow rate was set at 300 μL/min with an injection volume of 5 μL. The mobile phase consisted of water (containing 0.1% formic acid, A) and acetonitrile (B) and the gradient elution applied was as follows: 30–60% (B) for 0–4 min, 60% (B) for 0.5 min, and then re-equilibrated to 30% (B) until the end of the analysis. An LCQ Fleet ion-trap mass spectrometer (Thermo Fisher Scientific; MA, USA) was used to detect compounds in the eluent using the electrospray ionization source in the positive-ion mode. MS conditions were as follows: sheath gas (nitrogen), 50 arbitrary units; auxiliary gas (nitrogen), 20 arbitrary units; spray voltage, 5.0 kV; capillary temperature, 300℃; and capillary voltage, 30.0 V. Quantification of the compound was performed in the selective ion monitoring mode at 329 m/z [M+H]^+ for decursin and 415 m/z [M+H]^+ for the IS. Data was processed using Excalibur (v. 2.1.0; Thermo Fisher Scientific, CA, USA). Accurately weighed decursin and IS were dissolved in methanol at a concentration of 100 μg/mL, and the solution was diluted with methanol to prepare working solutions for the construction of the calibration curve. Calibration standards were prepared using 150 μL of blank rat plasma spiked with 10 μL of working solutions and 10 μL of IS solution, which was extracted using ethyl acetate. Plasma samples were prepared using a liquid–liquid extraction method. An aliquot of 150 μL plasma sample was spiked with 10 μL of IS solution and 10 μL of methanol, and 800 μL of ethyl acetate was added. Extraction of decursin and IS was performed by vortex mixing for 2 min at 25℃, followed by centrifugation at 704 × g for 10 min at 20℃. The upper layer (ethyl acetate) was then transferred to a clean 1.5 mL polypropylene tube and evaporated using a nitrogen gas blowing concentrator (MGS–2200; EYELA, Miyagi, Japan). The residue obtained after evaporation was reconstituted in 100 μL of methanol, vortex mixed for 2 min, and centrifuged at 704 × g for 10 min at 20℃. The supernatant was transferred to a glass vial and a 5 μL aliquot was injected into the UPLC–MS/MS system. […] Blood samples ([…]) were collected from a jugular vein in heparinized tubes before the administration, and 0.17, 0.5, 1, 2, 4, 6, 8, 12, 24, or 48 h after intragastric administration. Collected blood samples were immediately centrifuged at 704 × g for 10 min, and 150 μL aliquots of supernatant plasma were transferred to clean tubes and stored at -20 °C until analysis. The pharmacokinetic parameters of decursin were calculated using plasma concentration of decursin versus time data using PKSolver (a free add-in program for Microsoft Excel).

The test system of data set [2] is ERK and p38 in colon carcinoma cells. More on the design: method as in PMID 21170925. Conditions: cited from earlier work.
Where [3] appears, read: oral RAGE 100 mg/rat, mean ± SD, n = 6.

SMILES strings stand for the structures.

Usually half-life stands for how long it takes for the measured level to halve. A low value points to fast loss. As usually defined, the AUC(0-t) is the area under the concentration-time curve up to a stated or last time point. Low readings indicate low exposure, high ones high exposure. For orientation: AUC(0-inf) means the area under the concentration-time curve extrapolated to infinity. By Cmax is commonly meant the peak of the concentration-time curve. Broadly, the Tmax is the time at which the peak concentration occurs. As for `CC(C)=CC(=O)O[C@H]1Cc2cc3ccc(=O)oc3cc2OC1(C)C` [decursin], in data set [1] (SD, rat, after oral administration of RAGE, as restated in the discussion), the half-life was 8.28 h. This compound also yielded an AUC(0-t) in data set [1] (oral RAGE 100 mg/rat, 0 to 48 h, mean ± SD, n = 6) of 1190 ± 324 ng·h/mL. Further, the MRT last in data set [1] (oral RAGE 100 mg/rat, 0 to 48 h, mean ± SD, n = 6, read-out: MRT0-t) is 5.43 ± 0.581 h. Besides, the concentration at 48 h in data set [1] (oral RAGE 100 mg/rat, last measured concentration, mean ± SD, n = 6, read-out: Clast) came to 2.62 ± 0.665 ng/mL. In addition, in data set [1] (setting [3]), the AUC(0-inf) was 1220 ± 326 ng·h/mL, the Cmax worked out at 408 ± 85.7 ng/mL, the Tmax was determined as 1.75 ± 1.25 h and the half-life is 8.28 ± 0.538 h. For the same compound, in data set [1] (oral RAGE 100 mg/rat, mean ± SD, n = 6, read-out: MRT0-∞), the MRT inf worked out at 6.9 ± 0.954 h. In data set [2], the “activities of ERK and p38” value is “inhibited”.

Consider `CC1(C)Oc2cc3oc(=O)ccc3cc2C[C@@H]1O` [decursinol], for which the “activities of ERK and p38” value in data set [2] is given as “inhibited”.

The record behind these values is publication PMC7509924, “Neuroprotective effect of Angelica gigas root in a mouse model of ischemic brain injury through MAPK signaling pathway regulation” (Chinese Medicine, 2020).
